PMC6430112 (Xenobiotica; the fate of foreign compounds in biological …, 2018)
“And” between values parts separate entries of the source, which are not always exact repeats. Equal entries are not always repeated.

Assays:
CYP2A13 = molecular target: T1, CYP2A13 (Homo sapiens, UniProt Q16696); assay: Oxidation by purified CYP2A13 in reconstituted monooxygenase system, LC-MS/MS; assay type: in vitro ADME; conditions: substrate flavanone
T1 sequence (Q16696 1-494): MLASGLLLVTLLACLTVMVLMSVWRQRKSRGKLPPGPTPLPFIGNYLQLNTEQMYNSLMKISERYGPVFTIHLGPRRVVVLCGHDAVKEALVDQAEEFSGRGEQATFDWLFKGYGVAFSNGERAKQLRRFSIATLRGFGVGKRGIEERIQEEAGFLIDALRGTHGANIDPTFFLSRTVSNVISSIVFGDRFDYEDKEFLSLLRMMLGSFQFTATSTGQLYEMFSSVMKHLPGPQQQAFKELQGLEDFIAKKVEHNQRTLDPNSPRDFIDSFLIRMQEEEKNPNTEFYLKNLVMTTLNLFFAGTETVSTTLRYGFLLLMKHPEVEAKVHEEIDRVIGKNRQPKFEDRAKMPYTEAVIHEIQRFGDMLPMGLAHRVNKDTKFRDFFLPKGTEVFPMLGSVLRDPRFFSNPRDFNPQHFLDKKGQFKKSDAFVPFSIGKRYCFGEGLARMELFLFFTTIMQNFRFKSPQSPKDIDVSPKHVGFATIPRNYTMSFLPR

CYP1B1 = molecular target: T2, CYP1B1 (Homo sapiens, UniProt Q16678); assay: Oxidation by purified CYP1B1 in reconstituted monooxygenase system, LC-MS/MS; assay type: in vitro ADME; conditions: substrate flavanone
T2 sequence (Q16678 1-543): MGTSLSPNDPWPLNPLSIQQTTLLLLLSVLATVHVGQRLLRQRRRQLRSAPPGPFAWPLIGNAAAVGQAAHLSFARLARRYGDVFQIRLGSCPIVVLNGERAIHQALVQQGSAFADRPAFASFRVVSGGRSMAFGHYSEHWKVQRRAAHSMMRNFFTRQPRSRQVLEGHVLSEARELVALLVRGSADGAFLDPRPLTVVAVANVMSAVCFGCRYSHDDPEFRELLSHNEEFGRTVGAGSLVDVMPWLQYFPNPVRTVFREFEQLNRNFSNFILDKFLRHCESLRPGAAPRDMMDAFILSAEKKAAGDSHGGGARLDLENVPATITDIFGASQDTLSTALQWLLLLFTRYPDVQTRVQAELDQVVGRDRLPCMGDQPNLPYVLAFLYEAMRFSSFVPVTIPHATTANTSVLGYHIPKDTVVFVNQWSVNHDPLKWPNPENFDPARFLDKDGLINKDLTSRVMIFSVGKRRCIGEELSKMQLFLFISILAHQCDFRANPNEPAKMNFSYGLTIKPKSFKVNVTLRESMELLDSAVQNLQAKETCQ

wild-type CYP2A6 = conditions: substrate flavanone, ref Uno et al. (2013; 2015); cited from earlier work
CYP3A4 = CYP3A4 (Homo sapiens, UniProt P08684); assay: Oxidation by purified CYP3A4 in reconstituted monooxygenase system, LC-MS/MS; assay type: in vitro ADME; conditions: substrate flavanone
Chain of CYP3A4 (P08684 whole entry): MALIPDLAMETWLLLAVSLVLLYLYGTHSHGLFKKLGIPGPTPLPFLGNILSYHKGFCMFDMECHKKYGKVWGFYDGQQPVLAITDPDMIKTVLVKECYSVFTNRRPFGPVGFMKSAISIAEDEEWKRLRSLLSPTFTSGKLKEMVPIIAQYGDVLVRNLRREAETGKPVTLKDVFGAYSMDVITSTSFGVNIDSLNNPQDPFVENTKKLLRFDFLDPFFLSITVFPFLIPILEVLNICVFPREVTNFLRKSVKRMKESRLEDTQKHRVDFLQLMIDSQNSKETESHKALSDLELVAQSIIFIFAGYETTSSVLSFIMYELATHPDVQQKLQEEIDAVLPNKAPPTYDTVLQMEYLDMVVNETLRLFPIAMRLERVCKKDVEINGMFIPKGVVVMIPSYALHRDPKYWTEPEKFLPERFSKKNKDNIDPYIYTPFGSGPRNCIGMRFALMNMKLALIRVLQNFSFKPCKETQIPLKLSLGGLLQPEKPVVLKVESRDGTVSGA

CYP2C9 = CYP2C9 (Homo sapiens, UniProt P11712); assay: Oxidation by purified CYP2C9 in reconstituted monooxygenase system, LC-MS/MS; assay type: in vitro ADME; conditions: substrate flavanone
Chain of CYP2C9 (P11712 whole entry): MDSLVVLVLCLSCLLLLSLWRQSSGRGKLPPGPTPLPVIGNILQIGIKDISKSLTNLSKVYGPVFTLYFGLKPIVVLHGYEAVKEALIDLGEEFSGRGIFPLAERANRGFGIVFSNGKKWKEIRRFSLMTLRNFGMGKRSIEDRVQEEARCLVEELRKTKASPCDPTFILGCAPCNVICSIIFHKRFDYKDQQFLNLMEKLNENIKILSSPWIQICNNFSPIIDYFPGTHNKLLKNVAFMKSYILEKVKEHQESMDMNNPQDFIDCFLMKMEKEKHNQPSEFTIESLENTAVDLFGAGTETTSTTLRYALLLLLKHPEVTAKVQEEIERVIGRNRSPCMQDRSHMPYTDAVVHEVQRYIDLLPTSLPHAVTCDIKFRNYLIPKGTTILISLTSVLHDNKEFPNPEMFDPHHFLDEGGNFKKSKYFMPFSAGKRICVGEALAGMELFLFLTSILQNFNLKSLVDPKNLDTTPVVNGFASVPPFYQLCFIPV

rat liver microsomes = conditions: ref Kagawa et al. (2004); cited from earlier work
CYP2A6 = molecular target: T3, CYP2A6 (Homo sapiens, UniProt P11509); assay: Oxidation by purified CYP2A6 in reconstituted monooxygenase system, LC-MS/MS; assay type: in vitro ADME; conditions: substrate flavanone
T3 sequence (P11509 1-494): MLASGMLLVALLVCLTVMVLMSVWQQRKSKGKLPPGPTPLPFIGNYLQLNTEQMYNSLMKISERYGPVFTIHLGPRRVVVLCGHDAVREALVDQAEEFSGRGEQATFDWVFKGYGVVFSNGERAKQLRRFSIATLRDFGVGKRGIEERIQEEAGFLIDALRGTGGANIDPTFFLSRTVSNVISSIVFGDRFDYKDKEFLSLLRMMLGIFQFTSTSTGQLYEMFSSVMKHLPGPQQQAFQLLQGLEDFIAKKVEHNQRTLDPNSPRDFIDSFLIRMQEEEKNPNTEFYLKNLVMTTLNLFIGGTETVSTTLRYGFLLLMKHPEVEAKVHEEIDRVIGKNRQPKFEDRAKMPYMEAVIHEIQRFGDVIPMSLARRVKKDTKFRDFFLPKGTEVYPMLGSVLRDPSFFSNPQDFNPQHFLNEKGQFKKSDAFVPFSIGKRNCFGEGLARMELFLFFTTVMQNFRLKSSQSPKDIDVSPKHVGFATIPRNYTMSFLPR

CYP1A2 = molecular target: T4, CYP1A2 (Homo sapiens, UniProt P05177); assay: Oxidation by purified CYP1A2 in reconstituted monooxygenase system, LC-MS/MS; assay type: in vitro ADME; conditions: substrate flavanone
T4 sequence (P05177 1-516): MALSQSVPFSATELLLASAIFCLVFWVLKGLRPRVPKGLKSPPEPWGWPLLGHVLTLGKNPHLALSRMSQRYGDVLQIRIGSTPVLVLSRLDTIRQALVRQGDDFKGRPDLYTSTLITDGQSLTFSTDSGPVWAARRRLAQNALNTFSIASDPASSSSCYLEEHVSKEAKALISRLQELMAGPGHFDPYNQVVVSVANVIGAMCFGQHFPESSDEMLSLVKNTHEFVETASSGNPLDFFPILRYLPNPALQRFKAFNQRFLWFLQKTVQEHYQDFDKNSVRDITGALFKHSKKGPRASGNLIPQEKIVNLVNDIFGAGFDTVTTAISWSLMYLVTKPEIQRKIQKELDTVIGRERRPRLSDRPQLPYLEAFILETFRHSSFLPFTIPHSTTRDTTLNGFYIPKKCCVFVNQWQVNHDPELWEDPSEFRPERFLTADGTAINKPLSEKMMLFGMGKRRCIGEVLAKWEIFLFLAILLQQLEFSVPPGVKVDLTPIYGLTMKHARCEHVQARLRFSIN

CYP1A1 = molecular target: T5, CYP1A1 (Homo sapiens, UniProt P04798); assay: Oxidation by purified CYP1A1 in reconstituted monooxygenase system, LC-MS/MS; assay type: in vitro ADME; conditions: substrate flavanone
T5 sequence (P04798 1-512): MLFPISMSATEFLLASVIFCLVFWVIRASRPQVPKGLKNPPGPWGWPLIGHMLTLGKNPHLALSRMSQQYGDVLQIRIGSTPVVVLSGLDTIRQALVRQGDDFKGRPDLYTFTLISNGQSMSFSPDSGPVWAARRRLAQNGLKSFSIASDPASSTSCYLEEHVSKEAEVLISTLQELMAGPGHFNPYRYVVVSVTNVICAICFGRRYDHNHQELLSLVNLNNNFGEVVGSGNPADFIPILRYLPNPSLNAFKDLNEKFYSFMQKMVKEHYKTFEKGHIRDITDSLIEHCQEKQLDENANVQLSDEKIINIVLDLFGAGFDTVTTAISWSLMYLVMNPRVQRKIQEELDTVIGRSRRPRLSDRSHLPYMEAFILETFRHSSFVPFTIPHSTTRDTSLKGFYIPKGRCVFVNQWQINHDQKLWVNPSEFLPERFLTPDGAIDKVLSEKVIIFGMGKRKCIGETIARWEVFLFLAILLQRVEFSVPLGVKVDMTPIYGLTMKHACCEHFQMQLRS

SMILES: O=C1CC(c2ccccc2)Oc2ccccc21 (stereo not drawn) [flavanone]
- Formation of flavone and hydroxylated products: 2´-OHFva (CYP2A13): 0.027 ± 0.002 nmol/min/nmol P450
- Formation of flavone and hydroxylated products: 3´-OHFva (CYP2A13): 0.011 ± 0.004 nmol/min/nmol P450
- Formation of flavone and hydroxylated products: 4’´-OHFva (CYP2A13): 0.013 ± 0.001 nmol/min/nmol P450
- Formation of flavone and hydroxylated products: 6OHF (CYP2A13): 0.004 ± 0.001 nmol/min/nmol P450
- Formation of flavone and hydroxylated products: 6OHFva (CYP2A13): 0.17 ± 0.01 nmol/min/nmol P450
- Formation of flavone and hydroxylated products: 7OHF (CYP2A13): <0.001 nmol/min/nmol P450
- Formation of flavone and hydroxylated products: 7OHFva (CYP2A13): 0.005 ± 0.001 nmol/min/nmol P450
- Formation of flavone and hydroxylated products: Flavone (CYP2A13): 0.29 ± 0.02 nmol/min/nmol P450
- Turnover rate of flavone formation (CYP2A13): 0.29 min⁻¹
- Formation of flavone and hydroxylated products: 2´-OHFva (CYP1B1): 0.046 ± 0.009 nmol/min/nmol P450
- Formation of flavone and hydroxylated products: 3´-OHFva (CYP1B1): 0.013 ± 0.002 nmol/min/nmol P450
- Formation of flavone and hydroxylated products: 4’´-OHFva (CYP1B1): 0.19 ± 0.04 nmol/min/nmol P450
- Formation of flavone and hydroxylated products: 6OHF (CYP1B1): 0.002 ± 0.001 nmol/min/nmol P450
- Formation of flavone and hydroxylated products: 6OHFva (CYP1B1): 0.33 ± 0.05 nmol/min/nmol P450
- Formation of flavone and hydroxylated products: 7OHF (CYP1B1): <0.001 nmol/min/nmol P450
- Formation of flavone and hydroxylated products: 7OHFva (CYP1B1): 0.003 ± 0.001 nmol/min/nmol P450
- Formation of flavone and hydroxylated products: Flavone (CYP1B1): 0.046 ± 0.002 nmol/min/nmol P450
- Turnover number of formation of 2´-hydroxyflavanone (wild-type CYP2A6): 0.32 min⁻¹
- Formation of flavone and hydroxylated products: 2´-OHFva (CYP3A4): <0.001 nmol/min/nmol P450
- Formation of flavone and hydroxylated products: 3´-OHFva (CYP3A4): <0.001 nmol/min/nmol P450
- Formation of flavone and hydroxylated products: 4’´-OHFva (CYP3A4): <0.001 nmol/min/nmol P450
- Formation of flavone and hydroxylated products: 6OHF (CYP3A4): <0.001 nmol/min/nmol P450
- Formation of flavone and hydroxylated products: 6OHFva (CYP3A4): <0.001 nmol/min/nmol P450
- Formation of flavone and hydroxylated products: 7OHF (CYP3A4): <0.001 nmol/min/nmol P450
- Formation of flavone and hydroxylated products: 7OHFva (CYP3A4): <0.001 nmol/min/nmol P450
- Formation of flavone and hydroxylated products: Flavone (CYP3A4): 0.057 ± 0.011 nmol/min/nmol P450
- Formation of flavone and hydroxylated products: 2´-OHFva (CYP2C9): 0.012 ± 0.001 nmol/min/nmol P450
- Formation of flavone and hydroxylated products: 3´-OHFva (CYP2C9): 0.003± 0.001 nmol/min/nmol P450
- Formation of flavone and hydroxylated products: 4’´-OHFva (CYP2C9): 0.040± 0.001 nmol/min/nmol P450
- Formation of flavone and hydroxylated products: 6OHF (CYP2C9): <0.001 nmol/min/nmol P450
- Formation of flavone and hydroxylated products: 6OHFva (CYP2C9): 0.091± 0.001 nmol/min/nmol P450
- Formation of flavone and hydroxylated products: 7OHF (CYP2C9): <0.001 nmol/min/nmol P450
- Formation of flavone and hydroxylated products: 7OHFva (CYP2C9): <0.001 nmol/min/nmol P450
- Formation of flavone and hydroxylated products: Flavone (CYP2C9): 0.009 ± 0.002 nmol/min/nmol P450
- Kinetic deuterium isotope effect for conversion of flavanone to flavone (rat liver microsomes): 1.5
- Formation of flavone and hydroxylated products: 2´-OHFva (CYP2A6; CYP2A6): 4.76 ± 0.32 nmol/min/nmol P450
- Formation of flavone and hydroxylated products: 3´-OHFva (CYP2A6; CYP2A6): 0.031 ± 0.003 nmol/min/nmol P450
- Formation of flavone and hydroxylated products: 4’´-OHFva (CYP2A6; CYP2A6): 0.20 ± 0.01 nmol/min/nmol P450
- Formation of flavone and hydroxylated products: 6OHF (CYP2A6; CYP2A6): 0.003 ± 0.001 nmol/min/nmol P450
- Formation of flavone and hydroxylated products: 6OHFva (CYP2A6; CYP2A6): 1.29 ± 0.08 nmol/min/nmol P450
- Formation of flavone and hydroxylated products: 7OHF (CYP2A6; CYP2A6): <0.001 nmol/min/nmol P450
- Formation of flavone and hydroxylated products: 7OHFva (CYP2A6; CYP2A6): <0.001 nmol/min/nmol P450
- Formation of flavone and hydroxylated products: Flavone (CYP2A6; CYP2A6): 0.72 ± 0.06 nmol/min/nmol P450
- Turnover number of 2´OHFva formation (CYP2A6; CYP2A6): 4.8 nmol/min/nmol CYP2A6
- Turnover number of 6OHFva formation (CYP2A6; CYP2A6): 1.3 nmol/min/nmol CYP2A6
- Turnover number of flavone formation (CYP2A6; CYP2A6): 0.72 nmol/min/nmol CYP2A6
- Turnover rate of 2´-hydroxyflavanone formation (CYP2A6; CYP2A6): 4.8 min⁻¹ and 4.76 min⁻¹
- Turnover rate of 6-hydroxyflavanone formation (CYP2A6; CYP2A6): 1.3 min⁻¹ and 1.29 min⁻¹
- Turnover rate of flavone formation (CYP2A6; CYP2A6): 0.72 min⁻¹
- Flavone formation turnover rate by CYP2A6 relative to CYP2A13 (CYP2A6; CYP2A6 higher than CYP2A13): ~ 3 fold
- Formation of flavone and hydroxylated products: 2´-OHFva (CYP1A2): 0.074 ± 0.012 nmol/min/nmol P450
- Formation of flavone and hydroxylated products: 3´-OHFva (CYP1A2): 0.117 ± 0.023 nmol/min/nmol P450
- Formation of flavone and hydroxylated products: 4’´-OHFva (CYP1A2): 0.33 ± 0.05 nmol/min/nmol P450
- Formation of flavone and hydroxylated products: 6OHF (CYP1A2): <0.001 nmol/min/nmol P450
- Formation of flavone and hydroxylated products: 6OHFva (CYP1A2): 0.19 ± 0.02 nmol/min/nmol P450
- Formation of flavone and hydroxylated products: 7OHF (CYP1A2): 0.002 ± 0.002 nmol/min/nmol P450
- Formation of flavone and hydroxylated products: 7OHFva (CYP1A2): 0.009 ± 0.001 nmol/min/nmol P450
- Formation of flavone and hydroxylated products: Flavone (CYP1A2): 0.008 ± 0.001 nmol/min/nmol P450
- Formation of flavone and hydroxylated products: 2´-OHFva (CYP1A1): 0.008 ± 0.004 nmol/min/nmol P450
- Formation of flavone and hydroxylated products: 3´-OHFva (CYP1A1): 0.004 ± 0.002 nmol/min/nmol P450
- Formation of flavone and hydroxylated products: 4’´-OHFva (CYP1A1): 0.074 ± 0.002 nmol/min/nmol P450
- Formation of flavone and hydroxylated products: 6OHF (CYP1A1): 0.002 ± 0.001 nmol/min/nmol P450
- Formation of flavone and hydroxylated products: 6OHFva (CYP1A1): 0.058 ± 0.008 nmol/min/nmol P450
- Formation of flavone and hydroxylated products: 7OHF (CYP1A1): <0.001 nmol/min/nmol P450
- Formation of flavone and hydroxylated products: 7OHFva (CYP1A1): 0.007 ± 0.003 nmol/min/nmol P450
- Formation of flavone and hydroxylated products: Flavone (CYP1A1): 0.053 ± 0.003 nmol/min/nmol P450
